Experiments:
Format in all cases: cell-based
[1] = test system: PTEN-P2/GFP prostate cancer cells; assay: Effect of 1,4-naphthoquinone analogs on PTEN-P2/GFP cell proliferation (WST-1 cell viability, 24 h); conditions: Mus musculus, WST-1, medium with 10% FBS and DHT, read-out: PTEN-P2/GFP cell proliferation, percent of control
Summary of the method: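 PTEN-P2/GFP cells, 8000/well, in medium with 10% FBS and 10^−8M DHT, dosed next day with increasing analog concentrations (constant DMSO) for 24 h at 37 °C, 5% CO2. Viability read by WST-1 after 3 h at 37 °C, OD at 460 nm.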

[2] = test system: human fibrosarcoma HT1080 cells; assay: Dose response of 1,4-naphthoquinone analogs in human fibrosarcoma cells HT1080 (WST-1, 24 h)
Procedure: (§1) 100 microliters of human fibrosarcoma HT1080 cells were plated at a density of 8000 cells/well in 96-well plates (triplicates) in growing medium containing 10% Fetal Bovine Serum, penicillin/streptomycin, and glutamine. The next day, increasing concentrations of a 1,4-naphthoquinone analog (diluted from 10 mM DMSO stock solutions) were added. DMSO used as solvent for all analogs, was kept constant through the 96-well plates. The control consisted of DMSO alone. The cells were subsequently incubated for 24 hours at 37° C. and 5% CO2 in normal cell growth conditions. Cell viability was assessed by adding 9 μL/well of WST-1 reagent (Clontech), which measured mitochondrial activity of live cells. […] The incubation time was 3 hours at 37° C. Optical density of the cell samples was measured at 460 nm, by using plate reader Spectra Max 250 (Molecular Devices). The drug was determined to be cytotoxic when OD values show an inverse correlation with analog concentrations.

[3] = test system: human breast cancer SKBR-3 cells; assay: Dose response of 1,4-naphthoquinone analogs in human breast cancer cells SKBR-3 (WST-1, 24 h)
Procedure: as §1, with “breast cancer SKBR-3” for “fibrosarcoma HT1080”

SMILES | activity at 1.2 µM [1] [%] | activity at 2.5 µM [1] [%] | activity at 5 µM [1] [%] | activity at 7.5 µM [1] [%] | activity at 10 µM [1] [%] | activity at 15 µM [1] [%] | proliferation of human fibrosarcoma HT1080 cells, percent of control ([2]; 1.2 μM) | proliferation of human fibrosarcoma HT1080 cells, percent of control ([2]; 2.5 μM) | proliferation of human fibrosarcoma HT1080 cells, percent of control ([2]; 5 μM) | proliferation of human fibrosarcoma HT1080 cells, percent of control ([2]; 7.5 μM) | proliferation of human fibrosarcoma HT1080 cells, percent of control ([2]; 10 μM) | proliferation of human fibrosarcoma HT1080 cells, percent of control ([2]; 15 μM) | proliferation of human fibrosarcoma HT1080 cells, percent of control ([2]; 20 μM) | human SKBR-3 cell proliferation, percent of control ([3]; 1.2 μM) | human SKBR-3 cell proliferation, percent of control ([3]; 2.5 μM) | human SKBR-3 cell proliferation, percent of control ([3]; 5 μM) | human SKBR-3 cell proliferation, percent of control ([3]; 7.5 μM) | human SKBR-3 cell proliferation, percent of control ([3]; 10 μM) | human SKBR-3 cell proliferation, percent of control ([3]; 15 μM) | human SKBR-3 cell proliferation, percent of control ([3]; 20 μM) | further results
O=C1C=C(Oc2c(F)cc(F)cc2F)C(=O)c2ccccc21 [Analog F04, 2-(2,4,6-trifluorophenoxy)-1,4-naphthoquinone] | 101 | 101 | 83.3 | 17.6 | 2.09 | 1.47 | 87.77% of control | 81.64% of control | 78.43% of control | 84.86% of control | 76.41% of control | 69.17% of control | 63.51% of control | 86.74% of control | 83.72% of control | 74.38% of control | 65.90% of control | 7.52% of control | 1.20% of control | 1.90% of control | activity at 20 µM [1]: 2.64%
COc1ccc(OC2=CC(=O)c3ccccc3C2=O)cc1 [Analog F05, 2-(4-methoxyphenoxy)-1,4-naphthoquinone] | 102 | 113 | 56.1 | 8.83 | 1.32 | 0.77 | 81.04% of control | 76.27% of control | 67.81% of control | 67.85% of control | 66.08% of control | 55.00% of control | 56.04% of control | 151.35% of control | 144.41% of control | 120.15% of control | 94.14% of control | 17.05% of control | 1.91% of control | 2.99% of control | activity at 20 µM [1]: 3.41%
O=C1C=C(Oc2ccc(OCc3ccccc3)cc2)C(=O)c2ccccc21 [Analog F06, 2-(4-(benzyloxy)phenoxy)-1,4-naphthoquinone] | 99.8 | 99.8 | 105 | 106 | 108 | 99.2 | 82.93% of control | 81.12% of control | 80.24% of control | 81.24% of control | 50.19% of control | 49.19% of control | 46.81% of control | 152.32% of control | 147.42% of control | 134.16% of control | 151.41% of control | 136.66% of control | 125.96% of control | 21.95% of control | activity at 20 µM [1]: 79.9%
Cc1cc(Cl)ccc1OC1=CC(=O)c2ccccc2C1=O [Analog F07, 2-(4-chloro-2-methylphenoxy)-1,4-naphthoquinone] | – | – | 96 | – | 36.3 | 19.4 | 85.35% of control | 89.16% of control | 76.04% of control | 68.43% of control | 69.89% of control | 67.89% of control | 69.50% of control | 143.50% of control | 160.12% of control | 131.48% of control | 68.35% of control | 12.78% of control | 2.70% of control | 6.29% of control | activity at 2 µM ([1]; 2 μM): 101%; activity at 3 µM ([1]; 3 μM): 102%; activity at 4 µM ([1]; 4 μM): 101%; activity at 6 µM ([1]; 6 μM): 88.4%; activity at 7 µM ([1]; 7 μM): 81.8%; activity at 25 µM ([1]; 25 μM): 12.5%

— patent US10577315B2, “Compositions and methods for treatment of prostate carcinoma” (Pellficure Pharmaceuticals, Inc., priority 2014, dated 2020)
